The target of experiment [1] is cAMP-dependent protein kinase catalytic subunit alpha/beta/gamma (Homo sapiens, UniProt P17612+P22694+P22612). The experiment is described as follows: Inhibitory activity against protein kinase A.
A further experiment addresses Protein kinase C (PKC). The experiment is described as follows: Inhibitory activity against protein kinase C.

What is called IC50 is the concentration at which inhibition is half-maximal. A higher IC50 goes with weaker potency in that assay. For the molecule `COc1cccc(C(=O)Nc2cc(Cl)cc3c4cc[nH]cc-4nc23)c1` [N-(6-Chloro-9H-beta-carbolin-8-yl)-3-methoxy-benzamide], the IC50 (in experiment [1]; on Protein kinase C (PKC)) was above 25 µM throughout.

Consider `COc1ccc(C(=O)Nc2cc(Cl)cc3c4cc[nH]cc-4nc23)cc1` [N-(6-Chloro-9H-beta-carbolin-8-yl)-4-methoxy-benzamide], for which the concentration for half-maximal inhibition (IC50) (in experiment [1]; at Protein kinase C (PKC)) was above 25 µM in each case.

Regarding `COc1ccccc1C(=O)Nc1cc(Cl)cc2c3cc[nH]cc-3nc12` [N-(6-Chloro-9H-beta-carbolin-8-yl)-2-methoxy-benzamide], the IC50 (in experiment [1]; against Protein kinase C (PKC)) was above 25 µM throughout.

Regarding `Clc1cc2c3cc[nH]cc-3nc2c(Cl)c1OCC1CC1` [6,8-Dichloro-7-cyclopropylmethoxy-9H-beta-carboline], the half-maximal inhibitory concentration (IC50) (in experiment [1]; on Protein kinase C (PKC)) was above 25 µM each time.

Regarding `O=[N+]([O-])c1cc(Cl)cc2c1[nH]c1cnccc12` [6-Chloro-8-nitro-9H-beta-carboline], the concentration for half-maximal inhibition (IC50) (in experiment [1]; against Protein kinase C (PKC)) was above 25 µM in each case.

The values above are taken from BindingDB's records for doi:10.1016/s0960-894x(03)00408-6 (Millennium Pharmaceuticals, 2003).
